Counter-ions that a name gives are not always drawn.
These compounds were tested against T1, human GluN1/GluN2B NMDA receptors (Homo sapiens, UniProt Q13224) (assay: Calcium flux (FLIPR) assay on cloned human NR1/GluN2B ion channels expressed in mammalian cells (standard and HTS variants)). Details: cells expressing human GluN1/GluN2B, glutamate and glycine co-agonists.
T1 construct: expressed in transfected cells
Assay type: cell-based
Summary of the method: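 Calcium influx read by FLIPR after co-agonist addition (glycine 10 μM, glutamate near EC40) following 5 min compound preincubation, with signal normalized to control wells.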

T1 sequence (Q13224 27-1484, other chains not shown): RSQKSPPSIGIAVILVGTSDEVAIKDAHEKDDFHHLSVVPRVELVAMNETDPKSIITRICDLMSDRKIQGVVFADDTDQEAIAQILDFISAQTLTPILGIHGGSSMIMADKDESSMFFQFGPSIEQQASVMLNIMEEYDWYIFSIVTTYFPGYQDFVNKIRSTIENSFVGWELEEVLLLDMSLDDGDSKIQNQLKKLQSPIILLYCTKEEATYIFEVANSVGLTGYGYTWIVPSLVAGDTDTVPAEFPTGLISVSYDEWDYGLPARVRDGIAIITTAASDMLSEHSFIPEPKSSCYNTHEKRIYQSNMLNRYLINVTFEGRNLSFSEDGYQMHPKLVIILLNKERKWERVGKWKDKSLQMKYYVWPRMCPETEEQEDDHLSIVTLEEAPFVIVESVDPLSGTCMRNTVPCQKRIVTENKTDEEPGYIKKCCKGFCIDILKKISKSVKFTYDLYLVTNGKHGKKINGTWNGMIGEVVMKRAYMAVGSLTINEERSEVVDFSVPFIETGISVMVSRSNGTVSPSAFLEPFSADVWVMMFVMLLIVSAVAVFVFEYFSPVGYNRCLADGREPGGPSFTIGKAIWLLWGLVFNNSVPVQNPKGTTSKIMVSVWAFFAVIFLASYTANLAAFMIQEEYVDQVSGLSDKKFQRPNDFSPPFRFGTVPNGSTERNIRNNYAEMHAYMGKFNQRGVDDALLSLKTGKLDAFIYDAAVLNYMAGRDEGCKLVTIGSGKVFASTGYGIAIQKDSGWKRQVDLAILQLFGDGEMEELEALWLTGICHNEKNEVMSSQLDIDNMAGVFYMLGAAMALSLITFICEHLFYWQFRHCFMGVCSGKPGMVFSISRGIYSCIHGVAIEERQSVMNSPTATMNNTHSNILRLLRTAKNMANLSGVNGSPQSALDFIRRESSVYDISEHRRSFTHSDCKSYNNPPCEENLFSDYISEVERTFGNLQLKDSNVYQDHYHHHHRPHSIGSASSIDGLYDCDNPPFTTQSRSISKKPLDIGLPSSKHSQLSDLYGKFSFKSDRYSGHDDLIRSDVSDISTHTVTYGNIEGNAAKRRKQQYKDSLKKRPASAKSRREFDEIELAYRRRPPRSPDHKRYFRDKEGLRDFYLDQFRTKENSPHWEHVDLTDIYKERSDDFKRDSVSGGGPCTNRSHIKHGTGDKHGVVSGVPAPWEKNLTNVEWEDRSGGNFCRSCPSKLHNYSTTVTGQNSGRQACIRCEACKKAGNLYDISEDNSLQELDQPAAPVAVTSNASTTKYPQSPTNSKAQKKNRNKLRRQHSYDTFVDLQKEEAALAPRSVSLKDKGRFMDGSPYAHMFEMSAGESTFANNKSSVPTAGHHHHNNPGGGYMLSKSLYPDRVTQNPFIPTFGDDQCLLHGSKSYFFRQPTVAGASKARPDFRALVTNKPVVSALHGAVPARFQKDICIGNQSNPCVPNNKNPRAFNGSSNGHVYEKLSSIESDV

Question: With `Cc1c(F)ccc(-c2cnc3cnn(Cc4cccnn4)c3c2)c1F` [Example 269, 6-(2,4-Difluoro-3-methyl-phenyl)-1-(pyridazin-3-ylmethyl)pyrazolo[4,3-b]pyridine] as the compound, how does the IC50 read?
Answer: The IC50 was 0.108 µM.

Question: `Cc1ncccc1Cn1ncc2ncc(-c3cccc(C(F)(F)F)c3)cc21` [Example 166, 1-[(2-Methyl-3-pyridyl)methyl]-6-[3-(trifluoromethyl)phenyl]pyrazolo[4,3-b]pyridine] was tested. Which IC50 did it give?
Answer: Its IC50 is 0.87 µM.

Question: `CC(F)(F)c1cc(-c2cnc3cnn(Cc4cncc(C#N)c4)c3c2)ccc1F` [Example 219, 5-[[6-[3-(1,1-Difluoroethyl)-4-fluoro-phenyl]pyrazolo[4,3-b]pyridin-1-yl]methyl]pyridine-3-carbonitrile] was tested. Which IC50 did it give?
Answer: Its IC50 is 0.158 µM.

Question: `FC(F)(F)c1cccc(-c2cnc3cnn(Cc4ccnnc4)c3c2)c1` [Example 254, 1-(Pyridazin-4-ylmethyl)-6-[3-(trifluoromethyl)phenyl]pyrazolo[4,3-b]pyridine] was tested. Which IC50 did it give?
Answer: Its IC50 is 0.548 µM.

Question: With `CC(F)(F)c1cc(-c2cnc3cnn(Cc4cncc(C#N)c4)c3c2)ccc1Cl` [Example 236, 5-[[6-[4-Chloro-3-(1,1-difluoroethyl)phenyl]pyrazolo[4,3-b]pyridin-1-yl]methyl]pyridine-3-carbonitrile] as the compound, how does the IC50 read?
Answer: Its IC50 is 0.494 µM.

Question: For `Cc1cncc(Cn2ncc3ncc(-c4ccc(Cl)c(OC(F)F)c4)cc32)c1` [Example 239, 6-[4-Chloro-3-(difluoromethoxy)phenyl]-1-[(5-methyl-3-pyridyl)methyl]pyrazolo[4,3-b]pyridine], which IC50 is on record?
Answer: The IC50 was 0.12 µM.

Question: How did the IC50 turn out when `Cn1ccc(Cn2ncc3ncc(-c4ccc(F)c(C(F)F)c4)cc32)n1` [Example 39, 6-[3-(Difluoromethyl)-4-fluoro-phenyl]-1-[(1-methylpyrazol-3-yl)methyl]pyrazolo[4,3-b]pyridine] was run?
Answer: The IC50 was 0.271 µM.

Question: How did the IC50 turn out when `Fc1ccc(-c2cnc3cnn(Cc4nnc(C(F)(F)F)o4)c3c2)cc1OC(F)F` [Example 115, 2-[[6-[3-(Difluoromethoxy)-4-fluoro-phenyl]pyrazolo[4,3-b]pyridin-1-yl]methyl]-5-(trifluoromethyl)-1,3,4-oxadiazole] was run?
Answer: Its IC50 is 0.414 µM.

Question: With `Fc1c(-c2cnc3cnn(Cc4cncc(Cl)c4)c3c2)cccc1C(F)F` [Example 213, 1-[(5-Chloro-3-pyridyl)methyl]-6-[3-(difluoromethyl)-2-fluoro-phenyl]pyrazolo[4,3-b]pyridine] as the compound, how does the IC50 read?
Answer: The IC50 was 0.068 µM.

Question: For `CC(C)c1nnc(Cn2ncc3ncc(-c4ccc(F)c(C(F)F)c4)cc32)o1` [Example 100, 2-[[6-[3-(Difluoromethyl)-4-fluoro-phenyl]pyrazolo[4,3-b]pyridin-1-yl]methyl]-5-isopropyl-1,3,4-oxadiazole], which IC50 is on record?
Answer: Its IC50 is 0.55 µM.

Question: Which IC50 does the source give for `Cc1nnc(Cn2ncc3ncc(-c4ccc(F)c(C(C)(F)F)c4)cc32)o1` [Example 104, 2-[[6-[3-(1,1-Difluoroethyl)-4-fluoro-phenyl]pyrazolo[4,3-b]pyridin-1-yl]methyl]-5-methyl-1,3,4-oxadiazole] here?
Answer: The IC50 was 0.244 µM.

Question: With `FC(F)(F)c1cccc(-c2cnc3cnn(Cc4cccnn4)c3c2)c1` [Example 258, 1-(Pyridazin-3-ylmethyl)-6-[3-(trifluoromethyl)phenyl]pyrazolo[4,3-b]pyridine] as the compound, how does the IC50 read?
Answer: The IC50 was 0.24 µM.

Question: Which IC50 does the source give for `COc1cncc(Cn2ncc3ncc(-c4ccc(F)c(C(F)F)c4)cc32)c1` [Example 207, 6-[3-(Difluoromethyl)-4-fluoro-phenyl]-1-[(5-methoxy-3-pyridyl)methyl]pyrazolo[4,3-b]pyridine] here?
Answer: The IC50 was 0.028 µM.

Question: `FC(F)c1cccc(-c2cnc3cnn(Cc4cncc(Cl)c4)c3c2)c1` [Example 158, 1-[(5-Chloro-3-pyridyl)methyl]-6-[3-(difluoromethyl)phenyl]pyrazolo[4,3-b]pyridine] was tested. Which IC50 did it give?
Answer: Its IC50 is 0.014 µM.

Question: For `Cc1ncc(Cn2ncc3ncc(-c4ccc(F)c(C)c4F)cc32)o1` [Example 63, 5-[[6-(2,4-Difluoro-3-methyl-phenyl)pyrazolo[4,3-b]pyridin-1-yl]methyl]-2-methyl-oxazole], which IC50 is on record?
Answer: Its IC50 is 0.268 µM.

Question: Which IC50 does the source give for `Cc1c(F)ccc(-c2cnc3cnn(Cc4cccnc4)c3c2)c1F` [Example 245, 6-(2,4-Difluoro-3-methyl-phenyl)-1-(3-pyridylmethyl)pyrazolo[4,3-b]pyridine trifluoroacetate salt] here?
Answer: Its IC50 is 0.033 µM.

Question: With `CC(=O)Nc1nnc(Cn2ncc3ncc(-c4ccc(F)c(C(F)F)c4)cc32)s1` [Example 128, N-(5-((6-(3-(Difluoromethyl)-4-fluorophenyl)-1H-pyrazolo[4,3-b]pyridin-1-yl)methyl)-1,3,4-thiadiazol-2-yl)acetamide] as the compound, how does the IC50 read?
Answer: Its IC50 is greater than 2.99 µM.

Question: `Cc1csc(Cn2ncc3ncc(-c4ccc(F)c(C(F)F)c4)cc32)n1` [Example 66, 2-[[6-[3-(Difluoromethyl)-4-fluoro-phenyl]pyrazolo[4,3-b]pyridin-1-yl]methyl]-4-methyl-thiazole] was tested. Which IC50 did it give?
Answer: The IC50 was 0.41 µM.

Question: `Cc1nnc(Cn2ncc3ncc(-c4ccc(F)c(C(F)F)c4)cc32)n1C` [Example 75, 6-[3-(Difluoromethyl)-4-fluoro-phenyl]-1-[(4,5-dimethyl-1,2,4-triazol-3-yl)methyl]pyrazolo[4,3-b]pyridine] was tested. Which IC50 did it give?
Answer: The IC50 was 0.139 µM.

Question: With `Cc1nnc(Cn2nc(C)c3ncc(-c4ccc(F)c(C(F)F)c4)cc32)s1` [Example 124, 2-[[6-[3-(Difluoromethyl)-4-fluoro-phenyl]-3-methyl-pyrazolo[4,3-b]pyridin-1-yl]methyl]-5-methyl-1,3,4-thiadiazole] as the compound, how does the IC50 read?
Answer: The IC50 was 0.066 µM.

Question: Which IC50 does the source give for `Cc1cncc(Cn2ncc3ncc(-c4cccc(C(C)(F)F)c4)cc32)c1` [Example 160, 6-[3-(1,1-Difluoroethyl)phenyl]-1-[(5-methyl-3-pyridyl)methyl]pyrazolo[4,3-b]pyridine] here?
Answer: Its IC50 is 0.112 µM.

Question: `Cc1noc(Cn2ncc3ncc(-c4ccc(F)cc4)cc32)n1` [Example 80, 5-[[6-(4-Fluorophenyl)pyrazolo[4,3-b]pyridin-1-yl]methyl]-3-methyl-1,2,4-oxadiazole] was tested. Which IC50 did it give?
Answer: The IC50 was 0.957 µM.

Question: With `FC(F)(F)c1cccc(-c2cnc3cnn(Cc4cnccn4)c3c2)c1` [Example 5, 1-(Pyrazin-2-ylmethyl)-6-[3-(trifluoromethyl)phenyl]pyrazolo[4,3-b]pyridine dihydrochloride salt] as the compound, how does the IC50 read?
Answer: Its IC50 is 0.237 µM.

Question: `Cc1c(F)ccc(-c2cnc3cnn(Cc4ccccn4)c3c2)c1F` [Example 244, 6-(2,4-Difluoro-3-methyl-phenyl)-1-(2-pyridylmethyl)pyrazolo[4,3-b]pyridine] was tested. Which IC50 did it give?
Answer: Its IC50 is 0.31 µM.

Question: `Nc1nnc(Cn2ncc3ncc(-c4ccc(F)c(C(F)F)c4)cc32)s1` [Example 16, 5-[[6-[3-(difluoromethyl)-4-fluoro-phenyl]pyrazolo[4,3-b]pyridin-1-yl]methyl]-1,3,4-thiadiazol-2-amine] was tested. Which IC50 did it give?
Answer: Its IC50 is 1.05 µM.

Question: `CC(F)(F)c1cc(-c2cnc3cnn(Cc4cncnc4)c3c2)ccc1F` [Example 277, 6-[3-(1,1-Difluoroethyl)-4-fluoro-phenyl]-1-(pyrimidin-5-ylmethyl)pyrazolo[4,3-b]pyridine] was tested. Which IC50 did it give?
Answer: The IC50 was 0.065 µM.

Question: For `Cc1cc(-c2cnc3c(F)nn(Cc4cccnc4)c3c2)ccc1F` [Example 178, 3-Fluoro-6-(4-fluoro-3-methyl-phenyl)-1-(3-pyridylmethyl)pyrazolo[4,3-b]pyridine], which IC50 is on record?
Answer: The IC50 was 0.026 µM.

Question: With `COc1cccc(-c2cnc3cnn(Cc4nc(C)no4)c3c2)c1` [Example 81, 5-[[6-(3-Methoxyphenyl)pyrazolo[4,3-b]pyridin-1-yl]methyl]-3-methyl-1,2,4-oxadiazole] as the compound, how does the IC50 read?
Answer: The IC50 was 2.31 µM.

Question: Which IC50 does the source give for `Cc1cncc(Cn2ncc3ncc(-c4cccc(C(F)(F)F)c4)cc32)c1` [Example 167, 1-[(5-Methyl-3-pyridyl)methyl]-6-[3-(trifluoromethyl)phenyl]pyrazolo[4,3-b]pyridine] here?
Answer: The IC50 was 0.25 µM.

Question: How did the IC50 turn out when `Cc1cc(-c2cnc3cnn(Cc4cncc(F)c4)c3c2)ccc1F` [Example 183, 6-(4-Fluoro-3-methyl-phenyl)-1-[(5-fluoro-3-pyridyl)methyl]pyrazolo[4,3-b]pyridine] was run?
Answer: Its IC50 is 0.021 µM.

Question: `Cc1cccc(-c2cnc3cnn(Cc4cccnn4)c3c2)c1` [Example 255, 6-(m-Tolyl)-1-(pyridazin-3-ylmethyl)pyrazolo[4,3-b]pyridine] was tested. Which IC50 did it give?
Answer: Its IC50 is 0.329 µM.

Question: Which IC50 does the source give for `OCc1nnc(Cn2ncc3ncc(-c4ccc(F)c(C(F)F)c4)cc32)o1` [Example 292, (5-((6-(3-(Difluoromethyl)-4-fluorophenyl)-1H-pyrazolo[4,3-b]pyridin-1-yl)methyl)-1,3,4-oxadiazol-2-yl)methanol] here?
Answer: Its IC50 is 0.17 µM.

Question: Which IC50 does the source give for `Cc1nnc(Cn2ncc3ncc(-c4ccc(F)c(C(F)F)c4)cc32)[nH]1` [Example 13, 6-[3-(Difluoromethyl)-4-fluoro-phenyl]-1-[(5-methyl-4H-1,2,4-triazol-3-yl)methyl]pyrazolo[4,3-b]pyridine] here?
Answer: The IC50 was 1.96 µM.

Question: `FC(F)(F)c1cccc(-c2cnc3cnn(Cc4cocn4)c3c2)c1` [Example 46, 4-[[6-[3-(Trifluoromethyl)phenyl]pyrazolo[4,3-b]pyridin-1-yl]methyl]oxazole] was tested. Which IC50 did it give?
Answer: Its IC50 is 0.538 µM.

Question: Which IC50 does the source give for `FC(F)(F)c1cccc(-c2cnc3cnn(Cc4cccnc4)c3c2)c1` [Example 163, 1-(3-Pyridylmethyl)-6-[3-(trifluoromethyl)phenyl]pyrazolo[4,3-b]pyridine hydrochloride salt] here?
Answer: Its IC50 is 0.09 µM.

Question: Which IC50 does the source give for `COc1nccc(Cn2ncc3ncc(-c4ccc(F)c(C(F)F)c4)cc32)n1` [Example 290, 6-[3-(Difluoromethyl)-4-fluoro-phenyl]-1-[(2-methoxypyrimidin-4-yl)methyl]pyrazolo[4,3-b]pyridine] here?
Answer: Its IC50 is 0.32 µM.

Question: `N#Cc1cncc(Cn2ncc3ncc(-c4ccc(F)c(OC(F)F)c4)cc32)c1` [Example 226, 5-[[6-[3-(Difluoromethoxy)-4-fluoro-phenyl]pyrazolo[4,3-b]pyridin-1-yl]methyl]pyridine-3-carbonitrile] was tested. Which IC50 did it give?
Answer: The IC50 was 0.068 µM.

Question: For `Cc1nnc(Cn2ncc3ncc(-c4ccc(C(F)(F)F)s4)cc32)o1` [Example 78, 2-Methyl-5-[[6-[5-(trifluoromethyl)-2-thienyl]pyrazolo[4,3-b]pyridin-1-yl]methyl]-1,3,4-oxadiazole], which IC50 is on record?
Answer: Its IC50 is 0.143 µM.

Question: How did the IC50 turn out when `Fc1cncc(Cn2ncc3ncc(-c4ccc(F)c(OC(F)F)c4)cc32)c1` [Example 225, 6-[3-(Difluoromethoxy)-4-fluoro-phenyl]-1-[(5-fluoro-3-pyridyl)methyl]pyrazolo[4,3-b]pyridine] was run?
Answer: The IC50 was 0.039 µM.
